Experimental data reported in patent US7294623B2, “Benzyl morpholine derivatives” (Eli Lilly and Company, priority 2002, dated 2007).
Where a name gives a salt, the structure may show the parent alone.

`COc1ccccc1S[C@H](c1ccc(Cl)cc1)[C@H]1CNCCO1` (single isomer, unassigned) (as salt: hydrochloride) [Example 12] gave a melting point of 238 to 241 °C. For `COc1ccccc1S[C@H](c1cccc(F)c1)[C@H]1CNCCO1` (single isomer, unassigned) (as salt: hydrochloride) [Example 13], the melting point was 233 to 234 °C. In the case of `CCOc1ccccc1S[C@H](c1cccc(F)c1)[C@H]1CNCCO1` (single isomer, unassigned) (as salt: hydrochloride) [Example 14], the melting point is reported as 211 to 215 °C. With `Fc1cccc([C@@H](Sc2ccccc2Cl)[C@H]2CNCCO2)c1` (single isomer, unassigned) (as salt: hydrochloride) [Example 15] the melting point was 183 to 187 °C.
